One experiment has as its target T1, PTP-1B (Homo sapiens, UniProt P18031).
T1 sequence (P18031 1-435): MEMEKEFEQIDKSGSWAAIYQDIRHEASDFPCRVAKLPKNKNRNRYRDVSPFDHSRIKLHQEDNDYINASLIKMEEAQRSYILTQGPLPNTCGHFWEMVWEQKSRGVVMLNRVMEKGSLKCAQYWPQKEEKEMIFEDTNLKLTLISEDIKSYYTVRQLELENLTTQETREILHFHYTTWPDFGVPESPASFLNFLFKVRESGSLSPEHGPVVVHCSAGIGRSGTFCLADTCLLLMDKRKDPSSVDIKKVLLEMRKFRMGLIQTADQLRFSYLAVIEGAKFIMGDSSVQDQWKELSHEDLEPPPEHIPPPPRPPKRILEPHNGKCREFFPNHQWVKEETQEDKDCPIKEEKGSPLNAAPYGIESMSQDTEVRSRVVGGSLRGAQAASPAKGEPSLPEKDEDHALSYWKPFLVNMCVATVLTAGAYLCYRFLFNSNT
Description: PTP-1B enzyme inhibition assay. Type of experiment: biochemical. The settings on record: in vitro enzyme inhibition; for IC50: read-out: Antidiabetic Activity (PTP-1B) IC50 Values (converted). As to the method: (§1) The antidiabetic effect of gallic acid was evaluated in vitro on inhibitory enzymes (α-glucosidase and α-amylase). Antidiabetic activity was determined using PTP-1B inhibition and α-glucosidase procedures. PTP-1B is a negative regulator of the insulin signaling pathway. All extracts of G. collinum were obtained after a period of extraction of 2 h. […] It is well known that polyphenols can provide health benefits to humans attributed to their strong radical-scavenging and antioxidant effects.

The next experiment addresses α-glucosidase (Saccharomyces cerevisiae, UniProt P53341). The format is biochemical. As to the method: as §1
α-Glucosidase inhibitory activities were evaluated according to the chromogenic method described by.

Experiment [1] in a line: DPPH scavenging assay (antioxidant activity). The settings on record: 30 min, 517 nm. As to the method:
The majority of the antioxidant activities (such as free radical scavenging) of herbal medicines, vegetables and fruits may be due to their phenolic compounds. A lower IC50 value than the standard vitamin C implied a significant antioxidant activity of the tested samples.
Antioxidant activity was measured using the DPPH (1,1-diphenyl-2-picrylhydrazyl) scavenging assay procedure as published in the literature. The extracts were dissolved in DMSO in a concentration of 100 µg/mL. Different concentrations of each extract were prepared in DMSO. Sample solution in different concentrations was added at 2.5 mL in each well of the 96 micro well plate. Into each well was added 1 mL of 0.3 mM DPPH solution in ethanol to produce the test solutions. DMSO (1 mL) was added to produce the blank solutions. Negative control sample was prepared by mixing 1 mL of DPPH solution with 2.5 mL of DMSO. The solutions were kept in the dark at room temperature for 30 min. Absorbance was measured at the wavelength of 517 nm. Ascorbic acid (vitamin C) was used as the standard sample.
Background: DPPH is a stable violet radical that fades when it is reduced.

Read-outs that look alike come from different tables or passages of the source.

Chain of α-glucosidase (P53341 whole entry): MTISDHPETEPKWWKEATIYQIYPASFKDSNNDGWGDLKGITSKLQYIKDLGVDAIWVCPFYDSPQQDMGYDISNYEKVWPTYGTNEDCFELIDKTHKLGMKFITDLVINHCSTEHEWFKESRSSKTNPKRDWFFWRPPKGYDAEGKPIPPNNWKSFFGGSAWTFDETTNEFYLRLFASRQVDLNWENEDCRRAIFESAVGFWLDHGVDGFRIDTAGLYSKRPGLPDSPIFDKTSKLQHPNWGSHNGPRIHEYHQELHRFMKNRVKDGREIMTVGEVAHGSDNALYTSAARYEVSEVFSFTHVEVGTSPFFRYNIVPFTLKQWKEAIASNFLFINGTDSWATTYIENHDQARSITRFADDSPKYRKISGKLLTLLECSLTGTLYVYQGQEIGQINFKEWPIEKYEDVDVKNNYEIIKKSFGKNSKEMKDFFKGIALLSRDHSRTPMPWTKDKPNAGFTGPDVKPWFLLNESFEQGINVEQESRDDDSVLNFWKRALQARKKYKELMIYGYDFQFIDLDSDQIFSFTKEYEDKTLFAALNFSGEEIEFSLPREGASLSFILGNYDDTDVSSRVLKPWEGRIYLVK

Take `Oc1cc(O)c2c(c1)OC(c1ccc(O)c(O)c1)C(O)C2` (single isomer, unassigned; (+)) [Catechin, (+)-Catechin]: at PTP-1B, the IC50 was 2.14 µM. Besides, the “antidiabetic activities in the α-glucosidase inhibition assay (in words)” value at α-glucosidase is listed as “potent antidiabetic activities”.

On to `COc1cc2c(=O)oc3c(OC)c(OC)cc4c(=O)oc(c1OC)c2c34` [3,3′,4,4′-Tetra-O-methylellagic acid], for which the 50% inhibitory concentration (IC50) at PTP-1B is 60.4 µM. The “Antidiabetic Activity (α-Glucosidase) IC50 Values” at α-glucosidase (in vitro enzyme inhibition) is given as “No effect”.

`COc1c(O)cc2c(=O)oc3c(OC)c(O)cc4c(=O)oc1c2c34` [3,3′-Di-O-methylellagic acid]: at PTP-1B, the IC50 was 19 µM. Further, at α-glucosidase (in vitro enzyme inhibition), the “Antidiabetic Activity (α-Glucosidase) IC50 Values” is “No effect”.

As to `O=C(O)/C=C/c1ccc(O)c(O)c1` [Caffeic acid], the IC50 at PTP-1B is 199 µM.

For `O=C(O[C@@H]1O[C@@H]2COC(=O)c3cc(O)c(O)c(O)c3-c3c(cc(O)c(O)c3O)C(=O)O[C@H]([C@H]1O)[C@@H]2O)c1cc(O)c(O)c(O)c1` [Corilagin, Corilagin (1-O-galloyl-3,6-O-hexahydroxydiphenoyl-β-D-glucose)], at PTP-1B, the concentration for half-maximal inhibition (IC50) was 1.37 µM. Also, at α-glucosidase (in vitro enzyme inhibition), the “antidiabetic activities in the α-glucosidase inhibition assay (in words)” value is reported as “potent antidiabetic activities”.

Turning to `CC[C@H](CC[C@@H](C)[C@H]1CC[C@H]2[C@@H]3CC=C4C[C@@H](O[C@@H]5O[C@H](CO)[C@@H](O)[C@H](O)[C@H]5O)CC[C@]4(C)[C@H]3CC[C@]12C)C(C)C` [Daucosterol, β-Sitosterol-3-O-β-D-glucopyranoside], the “Antidiabetic Activity (PTP-1B) IC50 Values” on PTP-1B is “No effect”.

As for `Oc1cc(O)c2c(c1)O[C@H](c1ccc(O)c(O)c1)[C@H](O)C2` [Epicatechin, (–)-Epicatechin], the IC50 on PTP-1B was 0.792 µM. Moreover, the “antidiabetic activities in the α-glucosidase inhibition assay (in words)” value on α-glucosidase is “potent antidiabetic activities”.

Turning to `Oc1cc(O)c2c(c1)O[C@H](c1cc(O)c(O)c(O)c1)[C@H](O)C2` [Epigallocatechin, (–)-Epigallocatechin (3,3′,4,5,5′,7-flavanhexol)], the “Antidiabetic Activity (PTP-1B) IC50 Values” on PTP-1B is “No effect”.

As to `O=C(O)c1cc(O)c(O)c(O)c1` [Gallic acid], the “Antidiabetic Activity (PTP-1B) IC50 Values” at PTP-1B is listed as “No effect”.

Consider `O=c1c(O)c(-c2ccc(O)c(O)c2)oc2cc(O)cc(O)c12` [Quercetin], for which the “antidiabetic activities in the α-glucosidase inhibition assay (in words)” value on α-glucosidase (in vitro enzyme inhibition) was “potent antidiabetic activities”.

Turning to `O=C1O[C@H]([C@@H](O)CO)C(O)=C1O` [Vitamin C, Ascorbic acid], the “Antioxidant Activity IC50 Values” in experiment [1] is 5.34 ± 0.42 µg/mL.

Usually IC50 stands for the midpoint of a concentration-inhibition curve.

Source of the values: publication PMC6152703, “Evaluation of the Antidiabetic Activity and Chemical Composition of Geranium collinum Root Extracts—Computational and Experimental Investigations” (Molecules : A Journal of Synthetic Chemistry and Natural …, 2017).
